The subject of one experiment is Dermacentor variabilis. The experiment is described as follows: Contact activity against larval American dog tick (coated vial). As for the experimental part:
This test is designed to evaluate the contact activity of test compounds against the American dog tick. Test compounds are dissolved in 100% acetone to 1000, 300, 100, 10, 1 and 0.1 ppm. 100 µL of each of these dilutions is added to the bottom of a 20 mL glass scintillation vial with a pipettor. The vial is allowed to dry under a fume hood for 15 minutes. The vial is then turned in its side, and 250 µL of each dilution is applied to the sides of the vial. The vial is placed on a rolling machine and allowed to roll under the hood, coating the sides of the vial, until the acetone completely evaporates. The bottom of the vial measures 4.909 cm^2 and the sides measure 4.5 cm high x 8.8 cm around, so that the total coated area of the scintillation vial measures 44.51 cm^2. The amount of test compound applied by each dilution equals 7.86, 2.36, 0.79, 0.079, 0.0079 and 0.00079 µg/cm^2, respectively. Unfed larval dog ticks are counted into the scintillation vials with a slightly damp paintbrush. Ten ticks are placed in each vial. These tests are done in replicates of two or three so that there are 20 to 30 ticks per rate/compound. Mortality readings are taken 4 and 24 hours after placing the ticks in the vials. To read the test, the vial is placed under a magnifying glass and tapped gently. […] Percent mortality is then calculated for each treatment.

The test system of the next experiment is Musca domestica. The experiment is described as follows: Coated vial test against adult house fly. How it is done: This test is designed to evaluate the activity of test compounds against the house fly. Test compounds are dissolved in 100% acetone to 1000, 300, 100, 10 and 1 ppm. 100 µL of each of these dilutions is added to the bottom of a 20 mL glass scintillation vial with a pipettor. The vial is allowed to dry under a fume hood for 15 minutes. The vial is then turned on its side, and 250 µL of each dilution is applied to the sides of the vial. The vial is placed on a rolling machine and allowed to roll under the hood, coating the sides of the vial, until the acetone completely evaporates. The bottom of the vial measures 4.909 cm^2 and the sides measure 4.5 cm high x 8.8 cm around, so that the total coated area of the scintillation vial measures 44.51 cm^2. The amount of test compound applied by each dilution equals 7.86, 2.36, 0.79, 0.079, and 0.0079 µg/cm^2, respectively. Included in all tests are two to three replications of untreated vials. Adult house flies which are five to seven days old are chilled in a freezer for five minutes to immobilize, and are placed on a sorting platform which provides a steady stream of CO2 to keep the flies immobile. Five flies are counted into each scintillation vial with forceps. The top of the vial is plugged with a wad of sheet cotton sufficient to contain the flies. These tests are done in replicates of two to four so that there are 10 to 20 flies per rate/compound. Mortality readings are taken 1 and 4 hours after placing the flies in the vials. Flies which are unable to stand when disturbed are considered dead. Percent mortality is then calculated for each treatment.

Where [1] appears, read: dose 0.079 µg/cm^2, 4 hours, read-out: 4 Hour % Mortality.
[2] abbreviates: dose 0.790 µg/cm^2, 4 hours, read-out: 4 Hour % Mortality.
[3] abbreviates: dose 2.360 µg/cm^2, 4 hours, read-out: 4 Hour % Mortality.

Like-named read-outs stand apart in the source and are kept apart here.

For orientation: mortality means the share of the test organisms that died.

With `CCOc1ccc(C(/C(F)=C/Cc2ccc(F)c(Oc3ccccc3)c2)C2CC2)cc1` (centres unmarked) [Compound 10, 1-[1-(p-Ethoxyphenyl)-2-fluoro-4-(4-fluoro-3-phenoxyphenyl)-2-butenyl]cyclopropane, (Z)-], the mortality at 0.079 µg/cm2 in the experiment with Dermacentor variabilis (setting [1]) amounted to 100%; in the experiment with Dermacentor variabilis (dose 0.079 µg/cm^2, 24 hours, read-out: 24 Hour % Mortality), 100%; in the experiment with Musca domestica (dose 0.079 µg/cm^2, 1 hour, read-out: 1 Hour % Mortality), 20%; in the experiment with Musca domestica (setting [1]), 60%. Moreover, the mortality at 0.79 µg/cm2 in the experiment with Dermacentor variabilis (setting [2]) came to 100%; in the experiment with Dermacentor variabilis (dose 0.790 µg/cm^2, 24 hours, read-out: 24 Hour % Mortality), 100%; in the experiment with Musca domestica (dose 0.790 µg/cm^2, 1 hour, read-out: 1 Hour % Mortality), 20%; in the experiment with Musca domestica (setting [2]), 75%. Besides, the mortality at 2.36 µg/cm2 with Dermacentor variabilis (setting [3]) turned out to be 100%; in the experiment with Dermacentor variabilis (dose 2.360 µg/cm^2, 24 hours, read-out: 24 Hour % Mortality) it was 100%; in the experiment on Musca domestica (dose 2.360 µg/cm^2, 1 hour, read-out: 1 Hour % Mortality) it was 40%; with Musca domestica (setting [3]), 100%. Further, the mortality at 7.86 µg/cm2 was 100% in the experiment on Dermacentor variabilis (dose 7.860 µg/cm^2, 4 hours, read-out: 4 Hour % Mortality) and 100% in the experiment on Dermacentor variabilis (dose 7.860 µg/cm^2, 24 hours, read-out: 24 Hour % Mortality).

For the origin of these results see patent EP0933027A1, “Methods and compositions for protecting animals and humans against attack and infestation by arthropod and helminth parasites” (American Cyanamid Company, priority 1998, dated 1999).
